Consider two molecules from US9745299B2, “Substituted tricyclic benzimidazoles as kinase inhibitors” (SELVITA SA, priority 2012, dated 2017).

SMILES strings stand for the structures. Counter-ions that a name gives are not always drawn.

One data set deals with T1, CDK7/CyclinH/MAT1 (Homo sapiens, UniProt P50613).
T1 construct: purchased Millipore, Billerica, Mass., USA
Briefly: ADP-Glo Kinase Assay, CDK7/CyclinH/MAT1. Format: biochemical. Particulars: read-out: % inhibition at 1 μM CDK7/CyclinH/MAT1. On the procedure: (§1) Testing of the compounds described in this invention was carried out using the ADP-Glo™ Kinase Assay from Promega Corporation (Madison, Wis., USA).
(§2) The ADP-Glo™ Kinase Assay is a luminescent ADP detection assay to measure kinase activity by quantifying the amount of ADP produced during a kinase reaction. The kinase assay is performed in kinase assay buffer (5 mM MOPS, pH 7.5, 5 mM MgCl2, 0.4 mM EDTA, 1.5 mM DTT). Test samples initially dissolved in DMSO at 10 mM were diluted with the assay buffer to 1000 nM. A 30 μL volume/well of a mixture of substrates containing ATP (final ATP concentration in each kinase assay was equal to its apparent ATP Km).
(§3) The assay was performed in two steps: first, after the kinase reaction, an equal volume of ADP-Glo™ Reagent was added to terminate the kinase reaction and deplete the remaining ATP. Second, the Kinase Detection Reagent was added to simultaneously convert ADP to ATP and allowed the newly synthesized ATP to be measured using a luciferase/luciferin reaction. The luminescent signal generated was proportional to the ADP concentration produced and was correlated with kinase activity.
For orientation: ADP-Glo turns the ADP formed in a reaction into a luminescent signal.

The target of a further data set is T2, CDK5/p25 (Homo sapiens, UniProt Q00535).
T2 construct: purchased Millipore, Billerica, Mass., USA
Briefly: ADP-Glo Kinase Assay, CDK5/p25. Further: ATP at apparent Km (12 µM). The data set is classed as biochemical. Particulars: read-out: % inhibition at 1 μM CDK5/p25. How it is done:
as §1, §2, §3

Data set [1] relates to MCF7 breast adenocarcinoma. Description: Cytotoxic effects, MCF7. The data set is classed as cell-based, human.
For a further data set, the target named is T3, CDK9/CyclinT (Homo sapiens, UniProt P50750).
T3 construct: purchased Proqinase, Freiburg, Germany
Description: ADP-Glo Kinase Assay, CDK9/CyclinT. Further: ATP at apparent Km (26 µM). The data set is classed as biochemical. Particulars: read-out: % inhibition at 1 μM CDK9/CyclinT. In short, it runs like this: (§4)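 ADP-Glo luminescent ADP detection measured kinase activity: remaining ATP depleted, ADP converted to ATP for luciferase read-out.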

Data set [2] concerns HCT116 cells. Briefly: Matrigel Invasion Chambers, HCT116 invasion. The data set is classed as cell-based, human. The settings on record: increasing concentrations, 22 h, 10% FBS chemoattractant. How it is done:
Matrigel Invasion Chambers [catalog number 354480 (BD Biosciences)] are useful to study cell invasion of malignant and normal cells. Matrigel Invasion Chambers can be used to study the mechanisms of invasion and to identify factors that interfere with this process in an in vitro environment. According to standard assays known to the skilled person, 5×10^4 HCT116 cells/ml were added in each case to the upper chamber of the Matrigel Invasion Chambers in the presence of increasing concentrations of “Example 1K”, whereas chemoatractant comprising 10% FBS was added to the lower chamber. The Invasion Chambers were incubated for 22 h in a humidified tissue culture incubator at 37° C., 5% CO2. Non-invading cells were removed by scrubing. The cells on the lower surface of the membrane were then stained with Diff-Quik™ stain. The results shown in FIG. 4 indicate that strong and selective CDK8 inhibitors as the “Example 1K” compound appear to be capable of repressing invasiveness of HCT116 colon cancer cells.

In the next data set the target is T4, CDK8/CyclinC (Homo sapiens, UniProt P49336).
T4 construct: purchased ProQinase, Freiburg, Germany
Description: ADP-Glo Kinase Assay, CDK8/CyclinC. Further: ATP at apparent Km (53 µM). Format: biochemical. The settings on record: read-out: % inhibition at 1 μM CDK8/CyclinC. The method in brief:
as §4

A further data set relates to HepG2 hepatocarcinoma. Briefly: Cytotoxic effects, HepG2. Format: cell-based, human.
The test system of another data set is IL6. Description: LPS assay, IL-6 ELISA in RAW 264.7. Format: cell-based, mouse. Particulars: RAW 264.7, 4 h pre-incubation, LPS 1 μg/ml for 6 h. An excerpt: (§5) The LPS assay was used to evaluate ability to respond to an inflammatory stimulus by mounting an acute phase response. The acute phase response is characterized by a dramatic increase in the production of a group of proteins by the liver. Bacterial LPS is an endotoxin, a potent inducer of the acute phase response and systemic inflammation. This response is induced by the production of TNFα, IL-1β, and IL-6 from activated monocytes and neutrophils in response to inflammatory stimuli. Evaluation of the three pro-inflammatory cytokines, TNFα, IL-1β, and IL-6, is the current standard method for evaluation of the ability of the immune system to mount an innate inflammatory immune response. In each case, and by methods known to those practiced in the art, RAW 264.7 Mouse leukaemic monocyte macrophage cells were plated at the density of 40 000 cells per well. Next day, cells were pre-incubated with tested compounds (fconc=10 μM) for 4 h and then stimulated with LPS (fconc=1 μg/ml) for 6 h. In the cell culture media IL-6 and TNFα levels were examined by ELISA using BD OptEIA™ Mouse IL-6 ELISA Set Cat. No 555240 and BD OptEIA™ Mouse TNFα ELISA Set Cat. No 555268 (BD Biosciences Pharmingen, SanDiego, Calif., USA), according to manufacturer's instructions.
On the technique in general: In an ELISA, binding on a coated surface is turned into a signal by an enzyme label.

For a further data set, the system named is TNFalpha. Description: LPS assay, TNFα ELISA in RAW 264.7. Format: cell-based, mouse. The settings on record: RAW 264.7, 4 h pre-incubation, LPS 1 μg/ml for 6 h.
Source text: as §5

Data set [3] relates to HCT116 cells. Description: Combination with Oxaliplatin, MTS cell viability assay, Chou-Thalay method. Format: cell-based, human. The text has this:
Various well-accepted models exist for determination of synergistic and additive effect for two or more drugs in combination. As a matter of example combination index CI can be used as a quantitative measure of the degree of drug interaction in terms of synergism, additive effects and antagonism for a given endpoint of the measurement:
Synergism (C<1) greater than expected additive effect
Additive effect (CI=1) the combined effect predicted by the mass-action law principle in the absence of synergism or antagonism
Antagonism (CI>1) Smaller than expected additive effect
In the present example, the drug interactions between compound “Example 6” and Oxaliplatin which is a platinum-based type of anticancer chemotherapy medicine used to treat colorectal cancer were tested in HCT116 cells. Experimental data points in the MTS cell viability assay were spread for Oxaliplatin below and above the ED50 values in HCT116 cells, whereas concentration of the tested compounds was close to the apparent ED50. Chou-Thalay method for quantification of synergy was applied [Chou et al. Cancer Res. 15; 70(2):440-6, (2010)].
A general note: Tetrazolium dyes change colour on reduction, which living cells bring about.

T3 sequence (P50750 whole entry): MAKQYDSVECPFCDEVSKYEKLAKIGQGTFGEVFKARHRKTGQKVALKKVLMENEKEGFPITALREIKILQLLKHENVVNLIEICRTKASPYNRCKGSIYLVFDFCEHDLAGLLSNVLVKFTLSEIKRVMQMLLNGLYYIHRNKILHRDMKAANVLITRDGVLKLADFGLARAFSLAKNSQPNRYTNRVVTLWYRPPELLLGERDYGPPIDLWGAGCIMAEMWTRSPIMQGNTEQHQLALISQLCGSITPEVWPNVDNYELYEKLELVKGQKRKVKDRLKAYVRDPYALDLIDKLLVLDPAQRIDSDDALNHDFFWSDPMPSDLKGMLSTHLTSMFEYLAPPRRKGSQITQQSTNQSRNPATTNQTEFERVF
T3 sequence (O60563 whole entry partner): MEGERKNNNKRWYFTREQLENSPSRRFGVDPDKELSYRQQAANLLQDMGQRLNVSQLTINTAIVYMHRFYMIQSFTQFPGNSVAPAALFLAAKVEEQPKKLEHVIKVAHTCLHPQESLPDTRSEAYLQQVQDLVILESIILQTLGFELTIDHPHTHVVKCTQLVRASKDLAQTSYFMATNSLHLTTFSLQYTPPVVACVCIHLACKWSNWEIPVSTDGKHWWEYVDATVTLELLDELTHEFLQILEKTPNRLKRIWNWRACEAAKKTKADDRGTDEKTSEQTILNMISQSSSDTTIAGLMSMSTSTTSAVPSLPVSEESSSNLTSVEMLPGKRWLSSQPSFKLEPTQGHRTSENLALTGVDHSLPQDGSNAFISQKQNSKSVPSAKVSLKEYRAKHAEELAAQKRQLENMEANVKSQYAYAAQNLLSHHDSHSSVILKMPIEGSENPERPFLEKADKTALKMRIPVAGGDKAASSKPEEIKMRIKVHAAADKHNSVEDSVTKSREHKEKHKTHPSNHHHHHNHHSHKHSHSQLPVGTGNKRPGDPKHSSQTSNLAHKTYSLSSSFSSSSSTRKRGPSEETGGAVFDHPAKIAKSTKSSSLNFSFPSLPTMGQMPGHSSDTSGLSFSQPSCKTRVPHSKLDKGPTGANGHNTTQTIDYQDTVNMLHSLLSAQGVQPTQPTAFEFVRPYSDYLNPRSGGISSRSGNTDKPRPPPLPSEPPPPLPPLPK
T2 sequence (Q00535 whole entry): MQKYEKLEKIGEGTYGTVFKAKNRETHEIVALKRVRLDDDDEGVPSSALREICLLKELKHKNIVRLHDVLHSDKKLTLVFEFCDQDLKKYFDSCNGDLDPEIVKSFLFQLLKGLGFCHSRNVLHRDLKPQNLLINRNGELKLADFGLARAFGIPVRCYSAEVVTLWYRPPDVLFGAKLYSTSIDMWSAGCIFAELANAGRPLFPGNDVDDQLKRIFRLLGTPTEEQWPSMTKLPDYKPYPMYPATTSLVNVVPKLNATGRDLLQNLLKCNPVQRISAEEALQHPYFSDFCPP
T2 sequence (Q15078 99-307 partner limits assumed): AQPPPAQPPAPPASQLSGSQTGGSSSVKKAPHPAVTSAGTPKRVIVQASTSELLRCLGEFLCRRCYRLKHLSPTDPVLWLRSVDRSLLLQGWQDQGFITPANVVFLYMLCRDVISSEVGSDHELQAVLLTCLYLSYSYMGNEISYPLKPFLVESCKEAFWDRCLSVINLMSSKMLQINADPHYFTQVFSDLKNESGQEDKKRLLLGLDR
T4 sequence (P49336 whole entry): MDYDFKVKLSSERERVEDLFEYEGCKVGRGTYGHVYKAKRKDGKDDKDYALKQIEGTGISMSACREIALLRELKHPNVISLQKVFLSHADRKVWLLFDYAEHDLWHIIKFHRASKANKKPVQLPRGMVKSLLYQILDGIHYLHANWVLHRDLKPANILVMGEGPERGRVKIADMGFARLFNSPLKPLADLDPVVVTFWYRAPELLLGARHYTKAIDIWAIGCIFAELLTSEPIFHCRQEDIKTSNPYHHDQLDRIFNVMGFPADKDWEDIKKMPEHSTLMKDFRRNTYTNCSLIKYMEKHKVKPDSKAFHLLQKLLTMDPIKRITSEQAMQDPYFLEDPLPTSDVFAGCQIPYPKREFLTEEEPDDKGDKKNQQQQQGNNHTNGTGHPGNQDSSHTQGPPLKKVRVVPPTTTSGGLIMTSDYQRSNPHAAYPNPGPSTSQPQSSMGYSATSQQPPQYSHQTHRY
T4 sequence (P24863 whole entry partner): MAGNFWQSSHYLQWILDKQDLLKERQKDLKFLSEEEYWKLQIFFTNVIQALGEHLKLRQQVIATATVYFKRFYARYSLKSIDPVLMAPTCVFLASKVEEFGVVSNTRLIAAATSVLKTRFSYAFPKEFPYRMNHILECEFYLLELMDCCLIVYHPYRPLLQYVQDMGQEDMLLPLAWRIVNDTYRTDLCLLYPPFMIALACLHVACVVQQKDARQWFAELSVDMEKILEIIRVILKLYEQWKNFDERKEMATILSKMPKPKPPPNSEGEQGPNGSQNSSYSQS
T1 sequence (P50613 whole entry): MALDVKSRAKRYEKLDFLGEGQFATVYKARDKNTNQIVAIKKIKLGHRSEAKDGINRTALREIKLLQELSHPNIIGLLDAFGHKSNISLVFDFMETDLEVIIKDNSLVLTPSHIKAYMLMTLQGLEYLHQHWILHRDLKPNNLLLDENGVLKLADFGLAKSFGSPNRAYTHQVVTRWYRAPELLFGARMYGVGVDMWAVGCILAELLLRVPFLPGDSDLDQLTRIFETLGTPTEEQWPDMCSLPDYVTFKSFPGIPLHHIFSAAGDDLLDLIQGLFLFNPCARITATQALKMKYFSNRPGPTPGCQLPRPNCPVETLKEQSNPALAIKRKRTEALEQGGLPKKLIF
T1 sequence (P51946 whole entry partner): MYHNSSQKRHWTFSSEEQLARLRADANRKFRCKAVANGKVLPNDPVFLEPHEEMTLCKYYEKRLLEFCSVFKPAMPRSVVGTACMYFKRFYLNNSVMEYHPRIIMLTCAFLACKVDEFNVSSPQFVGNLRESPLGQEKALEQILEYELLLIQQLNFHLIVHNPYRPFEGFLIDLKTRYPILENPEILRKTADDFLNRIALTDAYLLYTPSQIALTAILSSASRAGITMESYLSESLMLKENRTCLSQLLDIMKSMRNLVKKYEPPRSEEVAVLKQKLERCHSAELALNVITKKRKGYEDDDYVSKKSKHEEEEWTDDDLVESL
T1 sequence (P51948 whole entry partner): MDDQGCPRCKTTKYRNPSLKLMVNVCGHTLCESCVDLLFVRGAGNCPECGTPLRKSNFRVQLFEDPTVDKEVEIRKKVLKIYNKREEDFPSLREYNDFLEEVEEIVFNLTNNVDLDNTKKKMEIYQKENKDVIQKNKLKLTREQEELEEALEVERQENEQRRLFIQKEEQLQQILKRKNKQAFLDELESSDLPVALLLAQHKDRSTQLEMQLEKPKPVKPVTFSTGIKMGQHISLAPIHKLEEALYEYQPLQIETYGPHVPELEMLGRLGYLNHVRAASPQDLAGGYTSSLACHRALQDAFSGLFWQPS

For `Cc1c(Br)c(Br)c2c3c1nc(N1CCNCC1)n3CCC2` [Example 1K], the inhibition at 1 µM at CDK7/CyclinH/MAT1 was determined as 0%; on CDK5/p25, 13%; on CDK9/CyclinT, 3%; at CDK8/CyclinC it was 76%. In addition, the cytotoxic effects entry (in [1]; with HepG2 hepatocarcinoma) was “showed cytotoxic effects” in each case. In addition, the “invasiveness of HCT116 cells (FIG. 4)” value in the data set on HCT116 cells [2] is reported as “Repression of the invasiveness”.
On to `Brc1c(Br)c2c3c(nc(N4CCNCC4)n3CCC2)c1Br` [Example 6, 7,8,9-tribromo-2-(piperazin-1-yl)-5,6-dihydro-4H-imidazo[4,5,1-ij]quinoline maleate], for which the “LPS-induced IL6 production (FIG. 3)” value in the data set on IL6 was “dose dependent reduction”. Moreover, the “LPS-induced TNFalpha production (FIG. 3)” value with TNFalpha is “dose dependent reduction”. Besides, the inhibition at 1 µM on CDK7/CyclinH/MAT1 is 21%; on CDK5/p25, 39%; on CDK9/CyclinT, 55%; on CDK8/CyclinC, 96%. In addition, the cytotoxic effects result (in data set [1]; in the data set with HepG2 hepatocarcinoma) was “showed cytotoxic effects” each time. Besides, the “Combination Index (CI)” value with HCT116 cells [3] (Example 6 0.6 μM + Oxaliplatin 0.0010 μM) turned out to be 1.15; in the data set on HCT116 cells [3] (Example 6 0.6 μM + Oxaliplatin 0.01 μM), 0.99; in the data set on HCT116 cells [3] (Example 6 0.6 μM + Oxaliplatin 0.1 μM), 1.11; with HCT116 cells [3] (Example 6 0.6 μM + Oxaliplatin 1.0 μM), 0.69; with HCT116 cells [3] (Example 6 0.6 μM + Oxaliplatin 2.5 μM), 0.38; with HCT116 cells [3] (Example 6 0.6 μM + Oxaliplatin 5.0 μM), 0.29.
